Measurements as given in patent US8703805B2 (Exelixis Patent Company LLC, priority 2005, dated 2014).

Test system: LXRα and/or LXRβ
Test: LXR/LXRE co-transfection assay (luciferase reporter, CV-1 cells)
Assay type: cell-based, human
Settings: IC50 or EC50 for LXR (LXRα and/or LXRβ, not distinguished), tested as described in Example 109, CV-1 cells
How it was run: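 Transient co-transfection of CV-1 cells with full-length human LXRα or LXRβ plus RXRα expression plasmids and an LXREx1-Tk-luciferase reporter; compounds (10 μM screen, ≤1% DMSO) incubated 20 h at 37 °C. Luminescence read after lysis; EC50/IC50 from 8-point half-log curves, efficacy relative to a high control or DMSO.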

SMILES	EC50
CC(C)(CNC=O)c1cc(-c2ccc(-c3cccc(S(C)(=O)=O)c3)s2)n(-c2ccccc2Cl)n1 [Example 1204, N-{2-[1-(2-chlorophenyl)-5-{5-[3-(methylsulfonyl)phenyl]-2-thienyl}-1H-pyrazol-3-yl]-2-methylpropyl}formamide]	1000 to 10000 nM
CC(C)(O)c1cc(-c2ccc(-c3cccc(NS(C)(=O)=O)c3)cc2)n(-c2ccccc2Cl)n1 [Example 1309, N-{4′-[1-(2-chlorophenyl)-3-(1-hydroxy-1-methylethyl)-1H-pyrazol-5-yl]biphenyl-3-yl}methanesulfonamide]	1000 to 10000 nM
CC(C)(O)c1cc(-c2ccc(-c3cccc(O)c3)cc2)n(-c2ccccc2Cl)n1 [Example 1285, 4′-[1-(2-chlorophenyl)-3-(1-hydroxy-1-methylethyl)-1H-pyrazol-5-yl]biphenyl-3-ol]	1000 to 10000 nM
Cc1cc(NCCN2CCCCC2)ccc1-c1cc(C(C)(C)O)nn1-c1c(Cl)cccc1Cl [Example 1405, 2-(1-(2,6-dichlorophenyl)-5-(2-methyl-4-(2-(piperidin-1-yl)ethylamino)phenyl)-1H-pyrazol-3-yl)propan-2-ol]	> 10000 nM
CC(C)(O)c1cc(-c2ccc(-c3cccc(S(C)(=O)=O)c3)s2)n(-c2ccc(Cl)cc2)n1 [Example 1257, 2-[1-(4-chlorophenyl)-5-{5-[3-(methylsulfonyl)phenyl]-2-thienyl}-1H-pyrazol-3-yl]propan-2-ol]	1000 to 10000 nM
COC(=O)CCNC(=O)c1ccc(-c2cc(C(F)(F)F)nn2-c2ccccc2Cl)cc1 [Example 1356, methyl N-({4-[1-(2-chlorophenyl)-3-(trifluoromethyl)-1H-pyrazol-5-yl]phenyl}carbonyl)-beta-alaninate]	1000 to 10000 nM
CC(C)(O)c1cc(-c2ccc(-c3cccc(S(C)(=O)=O)c3)s2)n(-c2c(Cl)cc(Cl)cc2C(F)(F)F)n1 [Example 1341, 2-(1-[2,4-dichloro-6-(trifluoromethyl)phenyl]-5-{5-[3-(methylsulfonyl)phenyl]-2-thienyl}-1H-pyrazol-3-yl)propan-2-ol]	1000 to 10000 nM
CC(C)(O)c1cc(-c2ccc(-c3cccc(S(N)(=O)=O)c3)cc2)n(-c2ccccc2Cl)n1 [Example 1300, 4′-[1-(2-chlorophenyl)-3-(1-hydroxy-1-methylethyl)-1H-pyrazol-5-yl]biphenyl-3-sulfonamide]	1000 to 10000 nM
CC(C)(O)c1cc(-c2ccc(-c3cccc(S(C)(=O)=O)c3)s2)n(-c2ccccc2F)n1 [Example 1261, 2-[1-(2-fluorophenyl)-5-{5-[3-(methylsulfonyl)phenyl]-2-thienyl}-1H-pyrazol-3-yl]propan-2-ol]	< 1000 nM
CS(=O)(=O)NC(=O)c1cc(-c2ccc(-c3cccc(S(C)(=O)=O)c3)s2)n(-c2ccccc2C(F)(F)F)n1 [Example 1196, N-(methylsulfonyl)-5-{5-[3-(methylsulfonyl)phenyl]-2-thienyl}-1-[2-(trifluoromethyl)phenyl]-1H-pyrazole-3-carboxamide]	1000 to 10000 nM
CS(=O)(=O)c1cccc(-c2ccc(-c3cc(C(O)C(F)(F)F)nn3-c3ccccc3Cl)s2)c1 (stereo not shown) [Example 1209, 1-[1-(2-chlorophenyl)-5-{5-[3-(methylsulfonyl)phenyl]-2-thienyl}-1H-pyrazol-3-yl]-2,2,2-trifluoroethanol]	< 1000 nM

The next lines start with the values.

EC50	SMILES
< 1000 nM	CC(C)(O)c1cc(-c2ccc(-c3cccc(S(C)(=O)=O)c3)s2)n(-c2c(Cl)cccc2Cl)n1 [Example 1239, 2-[1-(2,6-dichlorophenyl)-5-{5-[3-(methylsulfonyl)phenyl]-2-thienyl}-1H-pyrazol-3-yl]propan-2-ol]
< 1000 nM	CC(C)CNC(=O)c1cc(-c2ccc(-c3cccc(S(C)(=O)=O)c3)cc2Cl)n(-c2c(Cl)cccc2Cl)n1 [Example 1389, 5-(3-chloro-3′-(methylsulfonyl)biphenyl-4-yl)-1-(2,6-dichlorophenyl)-N-isobutyl-1H-pyrazole-3-carboxamide]
< 1000 nM	CC(C)(O)c1nn(-c2ccc(-c3cccc(S(C)(=O)=O)c3)cc2)c(-c2ccccc2Cl)c1Cl [Example 110, 2-(4-chloro-5-(2-chlorophenyl)-1-(3′-(methylsulfonyl)biphenyl-4-yl)-1H-pyrazol-3-yl)propan-2-ol]
< 1000 nM	CC(C)(O)c1nn(-c2ccccc2OC(F)(F)F)c(-c2ccc(-c3cccc(S(C)(=O)=O)c3)s2)c1Cl [Example 1367, 2-(4-chloro-5-{5-[3-(methylsulfonyl)phenyl]-2-thienyl}-1-{2-[(trifluoromethyl)oxy]phenyl}-1H-pyrazol-3-yl)propan-2-ol]
< 1000 nM	CC(C)(O)c1nn(-c2cccc(Cl)c2F)c(-c2ccc(-c3cccc(S(C)(=O)=O)c3)s2)c1Cl [Example 1366, 2-[4-chloro-1-(3-chloro-2-fluorophenyl)-5-{5-[3-(methylsulfonyl)phenyl]-2-thienyl}-1H-pyrazol-3-yl]propan-2-ol]
< 1000 nM	CC(C)(O)c1cc(-c2ccc(-c3cccc(S(C)(=O)=O)c3)s2)n(-c2cccc3c2OC(F)(F)O3)n1 [Example 1342, 2-[1-(2,2-difluoro-1,3-benzodioxol-4-yl)-5-{5-[3-(methylsulfonyl)phenyl]-2-thienyl}-1H-pyrazol-3-yl]propan-2-ol]
< 1000 nM	CC(C)(O)c1ccccc1-n1nc(C(F)(F)F)cc1-c1ccc(-c2cccc(S(C)(=O)=O)c2)s1 [Example 1229]
< 1000 nM	CC(C)(O)c1nn(-c2cccc(Cl)c2F)c(-c2ccc(-c3cccc(S(C)(=O)=O)c3)s2)c1Br [Example 1357, 2-[4-bromo-1-(3-chloro-2-fluorophenyl)-5-{5-[3-(methylsulfonyl)phenyl]-2-thienyl}-1H-pyrazol-3-yl]propan-2-ol]
< 1000 nM	Cc1cc(-c2cccc(S(C)(=O)=O)c2)ccc1-n1nc(C(C)(C)O)c(Cl)c1-c1ccccc1C(F)(F)F [Example 1420, 2-(4-chloro-1-(3-methyl-3′-(methylsulfonyl)biphenyl-4-yl)-5-(2-(trifluoromethyl)phenyl)-1H-pyrazol-3-yl)propan-2-ol]
< 1000 nM	COC(=O)c1cc(-c2cc(-c3cccc(S(C)(=O)=O)c3)co2)n(-c2ccccc2Cl)n1 [Example 1234, methyl 1-(2-chlorophenyl)-5-{4-[3-(methylsulfonyl)phenyl]furan-2-yl}-1H-pyrazole-3-carboxylate]
< 1000 nM	CCNC(=S)c1cc(-c2ccc(-c3cccc(S(C)(=O)=O)c3)s2)n(-c2ccccc2Cl)n1 [Example 1194, 1-(2-chlorophenyl)-N-ethyl-5-{5-[3-(methylsulfonyl)phenyl]-2-thienyl}-1H-pyrazole-3-carbothioamide]
< 1000 nM	Cc1cc(-c2cccc(S(C)(=O)=O)c2)cc(C)c1-n1nc(C(C)(C)O)cc1-c1ccccc1Cl [Example 146, 2-(5-(2-chlorophenyl)-1-(3,5-dimethyl-3′-(methylsulfonyl)biphenyl-4-yl)-1H-pyrazol-3-yl)propan-2-ol]
< 1000 nM	CC(C)(O)c1nn(-c2ccc(-c3cccc(S(C)(=O)=O)c3)cc2Cl)c(-c2c(Cl)cccc2Cl)c1Cl [Example 1414, 2-(4-chloro-1-(3-chloro-3′-(methylsulfonyl)biphenyl-4-yl)-5-(2,6-dichlorophenyl)-1H-pyrazol-3-yl)propan-2-ol]
< 1000 nM	CC(C)(O)c1cccc(-c2ccc(-c3cc(C(F)(F)F)nn3-c3c(Cl)cccc3Cl)c(Cl)c2)c1 [Example 1395, 2-(3′-chloro-4′-(1-(2,6-dichlorophenyl)-3-(trifluoromethyl)-1H-pyrazol-5-yl)biphenyl-3-yl)propan-2-ol]
